Publication PMC11472310, “Distinctive Immune Signatures Driven by Structural Alterations in Desmuramylpeptide NOD2 Agonists” (Journal of Medicinal Chemistry, 2024)

Test system: CD8+ T cells cocultured with BMDCs
Experiment: BMDC antigen cross-presentation to ovalbumin-specific CD8+ T cells (OT I)
Format: cell-based, C57BL/6 mouse
Conditions: BMDCs pretreated 10 μM + ovalbumin 50 μg/mL 18 h, coculture 72 h; OVA-treated cells 23.3%
Procedure: For this study, we narrowed down the selection of suitable desmuramylpeptides even further. In order to assess the adjuvant potential of selected desmuramylpeptides with regard to their effect on DC-mediated activation of CD4^+ and CD8^+ T cells, we conducted an ex vivo antigen-presentation assay utilizing C57BL/6 mouse bone marrow-derived DCs (BMDCs). Upon stimulation with desmuramylpeptides at 10 μM, in conjunction with ovalbumin soluble protein (50 μg/mL), BMDCs were cocultured with carboxyfluorescein succinimidyl ester (CFSE)-labeled naïve ovalbumin-specific CD4^+ or CD8^+ T cells, which were isolated from splenocytes of OT II and OT I transgenic mice, respectively. […] Additionally, we investigated how the priming of T cells elicited by the tested compounds impacted the cytokine profiles secreted in BMDC/T-cell cocultures.
CD4^+ and CD8^+ T cells were isolated from splenocytes of OT II and OT I transgenic mice using CD4^+ and CD8^+ T cell isolation kits (Miltenyi Biotec, Germany) following the manufacturer’s instructions. The purified T cells were labeled with CFSE (Invitrogen, Carlsbad, CA, USA) and subsequently washed. Next, 5 × 10^4 T cells were combined with 1 × 10^4 BMDCs/well (pretreated with desmuramylpeptides at 10 μM and 50 μg/mL ovalbumin [Invivogen, San Diego, CA, USA] for 18 h and then washed). Following a 72-h incubation period at 37 °C with 5% CO2, supernatants were harvested and stored at −80 °C for cytokine analysis. The cells were then stained with Fixable viability dye eFluor 780 (eBioscience, Thermo Fisher Scientific, MA, USA), anti-Thy1.2-PE-Cy7 antibodies (Biolegend, San Diego, CA, USA), anti-CD8-eFluor450 antibodies (eBioscience), anti-CD4-eFluor450 antibodies (eBioscience), and anti-CD25-APC antibodies (Biolegend) before analysis using a Beckman Coulter Cytoflex S flow cytometer (CA, USA) and FlowJo software (Tree Star, Inc., Ashland, OR, USA). Live Thy1.2+/CD4+ and Thy1.2+/CD8+ cells were assessed for CFSE dilution and CD25 expression. […] Statistical significance was determined using paired t tests.

CCCC(=O)Oc1ccc(/C=C/C(=O)NCC(=O)N[C@H](C(=O)N[C@H](CCC(=O)OCC)C(=O)OCC)C(C)C)cc1OC [Compound 3, Diethyl ((E)-3-(4-(Butyryloxy)-3-methoxyphenyl)acryloyl)glycyl-L-valyl-D-glutamate]
fraction of activated and proliferating CD8+ T-cells (CD25+, CFSE low): 29.3%

CC/C=C\C/C=C\C/C=C\C/C=C\C/C=C\CCCC(=O)Oc1ccc(/C=C/C(=O)NCC(=O)N[C@H](C(=O)N[C@H](CCC(=O)OCC)C(=O)OCC)C(C)C)cc1OC [Compound 23, Diethyl ((E)-3-(4-(((5Z,8Z,11Z,14Z,17Z)-Icosa-5,8,11,14,17-pentaenoyl)oxy)-3-methoxyphenyl)acryloyl)glycyl-L-valyl-D-glutamate]
fraction of activated and proliferating CD8+ T-cells (CD25+, CFSE low): 34.1%
